# pEC50, pIC50: −log10 of the molar value. Like-named read-outs stand apart in the source and are kept apart here.
# What was measured:
# HCMV AD169 = assay: HCMV plaque reduction assay, MRC-5 cells, strain AD169; assay type: cell-based, Human cytomegalovirus
# HFF cells = assay: Cell proliferation assay, human foreskin fibroblast (HFF) cells; assay type: cell-based; conditions: Homo sapiens, 72 h, cell number
# [1] = system: BK virus (BKV), Gardner strain
# JC virus (JCV) [2] = system: JC virus (JCV)
# [3] = human; for CLhep / Eh / Peak area ratio, parent: 1 μM
# [4] = rat; for CLhep / Eh: 1 μM; for Peak area ratio, parent: 1 µM
# in vitro [5] = conditions: human
# in vitro [6] = conditions: African green monkey
# in vitro [7] = conditions: human; for half-life at 1 μM: s9, T1/2
# in vitro [8] = conditions: rat; for half-life at 1 μM: s9, T1/2
# in vitro [9] = conditions: both, human, plasma
# in vitro [10] = conditions: male, SD, rat, plasma
# in vitro [11] = conditions: human; remark: listed apart in the source
# [12] = system: BK virus (BKV), Gardner strain; assay: microbe, parasite or virus in culture; conditions: Betapolyomavirus hominis, HFF
# JC virus (JCV) [13] = assay: microbe, parasite or virus in culture; conditions: JC polyomavirus, COS-7
# [14] = Secondary JCV assay (qPCR), COS7 cells; conditions: African green monkey
# JC virus (JCV) [15] = assay: Secondary JCV assay (qPCR), COS7 cells
# [16] = MRC-5 cytotoxicity assay (MTS) and visual cytotoxicity; conditions: human
# in vivo = conditions: male, Sprague-Dawley, rat; for AUC(0-inf): AUCInf; for AUC(0-t): AUClast; for MRT inf: MRTInf
# [17] = Rat plasma pharmacokinetics after IV infusion and PO dose; conditions: rats; 10 mg/kg IV 2-h infusion and PO
smiles,measurement,setting,value
CCCCCCCCCCCCCCCCOCCCOP(=O)(O)OCC1=CC(O)C(n2ccc(=O)[nH]c2=O)O1 (stereo not drawn) [AB23039],pEC50,"HCMV AD169; Human betaherpesvirus 5, 144 h, hCMV AD169, MRC5 cells, plaque assay, 6-days duration",4.74
same,antiviral activity against hCMV (in words),"HCMV AD169; MRC5 cells, AD169 strain",impressive antiviral activity
same,Selectivity Index (CC50/EC50),"HCMV AD169; hCMV AD169, MRC5 cells",2.33
same,pIC50,HFF cells,< 4.00
same,Activity,[1],HI (key: NA (Not Active) SI50 = 0-3.9; LO (Slightly Active) SI50 = 4-9.9; MOD (Moderately Active) SI50 = 10-19.9; HI (Highly Active) SI50 = ≥20)
same,activity against BK virus (in words),[1],high activity
same,Activity,JC virus (JCV) [2],HI (key: NA (Not Active) SI50 = 0-3.9; LO (Slightly Active) SI50 = 4-9.9; MOD (Moderately Active) SI50 = 10-19.9; HI (Highly Active) SI50 = ≥20)
same,activity against JC virus (in words),JC virus (JCV) [2],high activity
same,CLhep,[3],9.1 mL/min/kg
same,Eh,[3],44%
same,"Peak area ratio, parent",[3]; 15 min,3.41E−01
same,"Peak area ratio, parent",[3]; 60 min,3.09E−01
same,hydrolytic stability in hepatic S9 (in words),[3]; s9,most stable
same,T1/2,"[3]; s9, 1 μM",265 min
same,CLhep,[4],14.3 mL/min/kg
same,Eh,[4],26%
same,"Peak area ratio, parent",[4]; 15 min,3.61E−01
same,"Peak area ratio, parent",[4]; 60 min,3.25E−01
same,hydrolytic stability in hepatic S9 (in words),[4]; s9,most stable
same,T1/2,"[4]; s9, 1 μM",347 min
same,CC50,in vitro [5],90.9 µM
same,CC50,in vitro [6],71.8 µM
same,microsomal CLint at 1 μM,in vitro [7]; s9,5.2 µL/min/mg
same,half-life at 1 μM,in vitro [7],265 min
same,microsomal CLint at 1 μM,in vitro [8]; s9,4 µL/min/mg
same,half-life at 1 μM,in vitro [8],347 min
same,half-life at 0.75 µM,in vitro [9],> 559 min
same,half-life at 0.75 μM,in vitro [9],> 558 min
same,half-life at 0.75 µM,in vitro [10],> 559 min
same,half-life at 0.75 μM,in vitro [10],> 558 min
same,CC50 at 7 d,in vitro [11],> 150 µM
same,pEC50,[12],6.07
same,EC90,[12],7.76 µM
same,pEC50,JC virus (JCV) [13],6.68
same,EC90,JC virus (JCV) [13],23.4 µM
same,CC50 at 7 days,[14],46.8 µM
same,pEC50,"JC virus (JCV) [15]; JC polyomavirus, COS-7, 168 h",5.51
same,EC90,"JC virus (JCV) [15]; JC polyomavirus, COS-7, 168 h",9.44 µM
same,Activity,"JC virus (JCV) [15]; secondary JCV assay, COS7 cells, class by SI50",MOD (MOD (Moderately Active) SI50 = 10-19.9)
same,antiviral activity against JCV (in words),"JC virus (JCV) [15]; secondary testing, COS7 cells",moderate
same,CC50 at 6 days,[16],42.2 µM
"CCCCCCCCCCCCCCCCOCCCOP(=O)(O)CO[C@H](CO)Cn1ccc(N)nc1=O [BCV, Brincidofovir]",activity against BK virus (in words),[1],high or moderate activity
same,activity against JC virus (in words),JC virus (JCV) [2],high or moderate activity
same,CLhep,[3],9.5 mL/min/kg
same,Eh,[3],31%
same,CLhep,[4],11.5 mL/min/kg
same,Eh,[4],16%
same,concentration at 0.5 h,"in vivo; iv, 10 mg/kg",3400 nM
same,concentration at 1 h,"in vivo; iv, 10 mg/kg",3200 nM
same,concentration at 2 h,"in vivo; iv, 10 mg/kg",3660 nM
same,concentration at 4 h,"in vivo; iv, 10 mg/kg",45 nM
same,concentration at 8 h,"in vivo; iv, 10 mg/kg",9 nM
same,concentration at 24 h,"in vivo; iv, 10 mg/kg",6 nM
same,AUC(0-inf),"in vivo; iv, 10 mg/kg",9.01 µM·h
same,AUC(0-t),"in vivo; iv, 10 mg/kg",8.98 µM·h
same,clearance,"in vivo; iv, 10 mg/kg, CL",33.3 mL/min/kg
same,Cmax,"in vivo; iv, 10 mg/kg",3760 nM
same,MRT inf,"in vivo; iv, 10 mg/kg",1.9 h
same,Vd,"in vivo; iv, 10 mg/kg, Vss",3.7 L/kg
same,half-life,"in vivo; iv, 10 mg/kg, t1/2",48 min
same,half-life,"in vivo; iv, t1/2 in plasma",< 60 min
same,bioavailability,"in vivo; po, 10 mg/kg",11%
same,concentration at 0.5 h,"in vivo; po, 10 mg/kg",21 nM
same,concentration at 1 h,"in vivo; po, 10 mg/kg",25 nM
same,concentration at 2 h,"in vivo; po, 10 mg/kg",42 nM
same,concentration at 4 h,"in vivo; po, 10 mg/kg",39 nM
same,concentration at 8 h,"in vivo; po, 10 mg/kg",11 nM
same,AUC(0-inf),"in vivo; po, 10 mg/kg",1.2 µM·h
same,AUC(0-t),"in vivo; po, 10 mg/kg",1.17 µM·h
same,Cmax,"in vivo; po, 10 mg/kg",141 nM
same,MRT inf,"in vivo; po, 10 mg/kg",6.9 h
same,half-life,"in vivo; po, 10 mg/kg, t1/2",252 min
same,Tmax,"in vivo; po, 10 mg/kg, tmax",4 h
same,CC50,in vitro [5],> 10 µM
same,CC50,in vitro [6],9.25 µM
same,half-life at 1 μM,in vitro [7],246 min
same,half-life at 1 μM,in vitro [8],461 min
same,half-life at 0.75 μM,in vitro [9],> 558 min
same,half-life at 0.75 μM,in vitro [10],> 558 min
same,pEC50,[12],7.22
same,EC90,[12],0.39 µM
same,pEC50,JC virus (JCV) [13],6.13
same,EC90,JC virus (JCV) [13],1.85 µM
same,tolerability / adverse events (AE),[17],well-tolerated

# Source: patent US12466849B2, “Anti-viral and anti-tumoral compounds” (YEDA RESEARCH AND DEVELOPMENT CO. LTD, priority 2020, dated 2025)
